Results reported in patent publication US20230136075A1, “TREATMENT FOR SEPSIS-INDUCED ORGAN DYSFUNCTION” (The Florey Institute of Neuroscience and Mental Health, priority 2020, published 2023).
Read-outs that look alike come from different tables or passages of the source.

Tests used:
[1] = tested on: ovine sepsis induced by intravenous infusion of live E. coli
Text: Using this model, the inventors have investigated the effect of mega dose intravenous vitamin C therapy on various parameters indicative of the progression of sepsis in sheep (Merino ewes, 35-45 kg; 1.5-2.0 years old). Sheep were divided into two groups, a vitamin C (sodium ascorbate) therapy group and a vehicle group as a control. Experimental protocols were approved by the Animal Ethics Committee of the Florey Institute of Neuroscience and Mental Health under guidelines of the National Health and Medical Research Council of Australia.
Preparatory surgical procedures were carried out as described in Lankadeva et al. (2018b). Briefly, two preparatory surgical procedures were performed under general anaesthesia. First, a carotid artery was exteriorised into a skin fold to form a carotid arterial loop to facilitate cannulation for measurement of arterial pressure and heart rate, and for blood sampling. During the same surgical procedure, a flow probe was placed around the pulmonary artery to measure cardiac output. Animals were allowed 3-4 weeks of recovery. Second, a flow probe was implanted around a renal artery to measure renal blood flow, a renal vein was cannulated for blood sampling and fibre optic probes were inserted into the renal cortex, renal medulla (within kidneys) and parietal cortex (brain) to measure tissue perfusion, oxygen tension and temperature.
During the second surgical procedure cannulae were implanted in the carotid artery for arterial pressure measurement and blood sampling and the jugular vein for infusion of fluids, vasopressors, Escherichia coli, sodium ascorbate and blood sampling, and a Foley catheter was inserted into the bladder to collect urine and monitor hourly urine output.
Following three days of recovery from the second surgical procedure, the experimental protocol (see FIG. 1) was initiated in conscious sheep, to avoid the confounding effects of general anaesthesia. Animals daily food and water intake and urine output was measured on a 24-hour basis during the course of the 5-day protocol.
First, a 24-hour baseline period was commenced, which included measurement of systemic haemodynamics, renal and brain perfusion and oxygenation, arterial, central venous and renal venous blood gases and lactate, and urine output. Arterial blood and urine samples were collected at set times during the experimental period.
After establishment of the 24-hour baseline period, gram-negative sepsis was induced by intravenous infusion of live E. coli (isolated from a patient with sepsis at Austin Health) as described in Lankadeva et al. (2018b), administered as a loading (bolus) infusion of 2.8×10^9 colony-forming units (CFU) over 30-minutes followed by a continuous infusion of 1.26×10^9 CFU/h for 30.5 hours. No prophylactic antibiotics, sedative or analgesic agents were administered during this protocol. The description in the following paragraphs is with reference to the protocol as shown schematically in FIG. 1.
At 23 hours of sepsis, when sheep had fulfilled the clinical criteria for sepsis (i.e. established hypotension, tachycardia, fever, lung injury, tachypnoea, hyperlactatemia and stage 1-2 acute kidney injury) animals were resuscitated with 30 mL/kg balanced crystalloid sodium lactate (Hartmann's solution infused at approximately 2500 ml/hr) for 30 mins, from 23-23.5 hours of sepsis.
A blocked randomization design was used to allocate sheep to treatment with sodium ascorbate or vehicle.

[2] = tested on: ovine sepsis induced by intravenous infusion of live E. coli; assay: Vitamin C dose response in ovine sepsis (Example 3); assay type: in vivo
Protocol: The inventors then sought to determine the minimum dose of intravenous vitamin C required to reverse the pathophysiological features of sepsis and acute kidney injury, using the ovine sepsis model described in Example 1. Surgical procedures and initiation of gram negative sepsis were as described in Example 1.
At 24 hours of sepsis, sheep were randomised into one of four groups (n=2 each): (i) sodium ascorbate treatment at 1 g/kg for 7 hours; (ii) sodium ascorbate treatment at 2 g/kg for 7 hours; (iii) sodium ascorbate treatment at 3 g/kg for 7 hours; or (iv) fluid-matched vehicle. Norepinephrine doses were titrated to achieve a target blood pressure (75-80 mm Hg). All sodium ascorbate doses were given as a bolus followed by a continuous infusion. The bolus doses for the 1, 2 and […] treatments were, respectively, 0.133, 0.267 and 0.4 g/kg (5.3, 10.7 and 16 g for a 40 kg sheep. Sodium ascorbate was diluted in 1:1 ratio with 5% glucose prior to intravenous administration. At 31 hours of sepsis, animals were euthanised for tissue collection to facilitate molecular and histological investigations.

[3] = sodium ascorbate infusion, 24-31 hr of sepsis
[4] = sodium ascorbate infusion, 24-31 hr of sepsis, maintained for the following 2 days
[5] = 1, 2 and 3 g/kg sodium ascorbate compared, n=2 each
[6] = 3 g/kg sodium ascorbate for 7 hours, n=2

O=C1O[C@H]([C@@H](O)CO)C([O-])=C1O.[Na+] [sodium ascorbate]
clinical state of septic sheep ([1]; after infusion of sodium ascorbate for 3 hours, 0.5 g/kg bolus then 0.5 g/kg/hr iv, n=5): dramatically improved
renal histology: acute tubular necrosis or interstitial fibrosis in renal cortex, corticomedullary junction or medulla ([1]; at 48 hours of recovery): no acute tubular necrosis or interstitial fibrosis
dose of norepinephrine required to maintain mean arterial pressure ([1]; by 4 hours of sodium ascorbate infusion, n=5): not required in four of five sheep
body temperature ([1]; during sodium ascorbate therapy, 24-31 hr of sepsis, septic fever 41.4±0.2): ~39 °C
arterial blood potassium (hypokalemia) ([1]; infusion of sodium ascorbate): 3.14 ± 0.16 mmol/L
arterial blood sodium (hypernatremia) ([1]; infusion of sodium ascorbate): 153.6 ± 1.7 mmol/L
ischemia and hypoxia in the brain ([1]; sodium ascorbate 3.75 g/kg intravenous): a reversal of ischemia and hypoxia in the brain
arterial blood pH [1, 3]: no effects
cardiac output [1, 3]: significant, progressive decreases
creatinine clearance [1, 3]: significantly increased
fraction excretion of potassium [1, 3]: did not alter
fractional excretion of sodium [1, 3]: significantly increased
heart rate [1, 3]: significant, progressive decreases
partial pressure of carbon dioxide [1, 3]: no effects
plasma creatinine [1, 3]: corrected the increased plasma creatinine to below baseline levels
renal blood flow [1, 3]: decreased toward healthy levels
renal cortical tissue PO2 [1, 3]: Neither fluid bolus therapy, sodium ascorbate, nor norepinephrine had significant effects
renal vascular conductance [1, 3]: decreased toward healthy levels
level of peripheral vasoconstriction ([1]; sodium ascorbate infusion, 24-31 hr of sepsis, despite reduced norepinephrine dose): increased
renal medullary PO2 [1, 4]: increased further throughout the infusion
renal medullary perfusion [1, 4]: improved toward preseptic levels
arterial lactate ([1]; sodium ascorbate infusion, 2.0±0.2 mmol/L at 23 hours of sepsis): significant, progressive reduction
arterial PO2 ([1]; sodium ascorbate infusion, 80±3 at 23 hours of sepsis): 96.5±3.4 mm Hg
increase in plasma aspartate aminotransferase during sepsis ([1]; sodium ascorbate treatment): significantly reduced
increase in plasma bilirubin during sepsis ([1]; sodium ascorbate treatment): significantly reduced
urine flow ([1]; the 2 days following sodium ascorbate infusion): remained at normal baseline levels
urine flow ([1]; within 30 minutes of sodium ascorbate infusion, remained high throughout the infusion): greater than 10 mL/kg/hr
increase in urinary output [2, 5]: greatest in the 3 g/kg sodium ascorbate treatment group
normalisation of body temperature [2, 5]: strongest in the 3 g/kg sodium ascorbate treatment group
recovery in arterial PO2 [2, 5]: strongest in the 3 g/kg sodium ascorbate treatment group
reduction in arterial blood lactate levels [2, 5]: greatest in the 3 g/kg sodium ascorbate treatment group
norepinephrine dose requirements ([2]; 1, 2 and 3 g/kg sodium ascorbate for 7 hours, n=2 each): reduction in norepinephrine dose requirements with increased sodium ascorbate doses
renal medullary oxygen levels [2, 6]: improvement
vasopressor requirements for attaining target blood pressure (75-80 mm Hg) [2, 6]: Total withdrawal of vasopressor requirements
adverse side-effects ([2]; during these pre-clinical studies): No adverse side-effects were observed
dose required to provide optimal benefits towards reversing the pathophysiological features of sepsis ([2]; intravenous, based on dose response analysis and Examples 1 and 2): at least 3 g/kg
